Data on 16 molecules can be found in ChEMBL document CHEMBL3045592, “Studies of O,O-dimethyl α-(2,4-dichlorophenoxyacetoxy)ethylphosphonate (HW02) as a new herbicide. 1. Synthesis and herbicidal activity of HW02 and analogues as novel inhibitors of pyruvate dehydrogenase complex” (J Agric Food Chem, 2011).

Holding throughout (format): functional
Assay [1] relates to Medicago sativa. The assay can be described thus: Post-emergence herbicidal activity against Medicago sativa (alfalfa) assessed as growth inhibition at 1500 ai g/ha after 20 days by green house test.
For assay [2], the system named is Amaranthus retroflexus. The assay can be described thus: Post-emergence herbicidal activity against Amaranthus retroflexus assessed as growth inhibition at 1500 ai g/ha after 20 days by green house test.
Assay [3] relates to Brassica rapa subsp. oleifera. The assay can be described thus: Post-emergence herbicidal activity against Brassica rapa subsp. oleifera Si Yue Man assessed as growth inhibition at 1500 ai g/ha after 20 days by green house test.
For assay [4], the system named is Digitaria sanguinalis. The assay can be described thus: Post-emergence herbicidal activity against Digitaria sanguinalis (hairy crabgrass) assessed as growth inhibition at 1500 ai g/ha after 20 days by green house test.
For assay [5], the system named is Echinochloa crus-galli. The assay can be described thus: Post-emergence herbicidal activity against Echinochloa crus-galli (barnyard grass) assessed as growth inhibition at 1500 ai g/ha after 20 days by green house test.
The subject of assay [6] is Medicago sativa. The assay can be described thus: Pre-emergence herbicidal activity against Medicago sativa (alfalfa) assessed as growth inhibition at 1500 ai g/ha after 20 days by green house test.
Assay [7] has as its system Amaranthus retroflexus. The assay can be described thus: Pre-emergence herbicidal activity against Amaranthus retroflexus assessed as growth inhibition at 1500 ai g/ha after 20 days by green house test.
Assay [8] concerns Brassica rapa subsp. oleifera. The assay can be described thus: Pre-emergence herbicidal activity against Brassica rapa subsp. oleifera Si Yue Man assessed as growth inhibition at 1500 ai g/ha after 20 days by green house test.
Assay [9] relates to Digitaria sanguinalis. The assay can be described thus: Pre-emergence herbicidal activity against Digitaria sanguinalis (hairy crabgrass) assessed as growth inhibition at 1500 ai g/ha after 20 days by green house test.
The test system of assay [10] is Echinochloa crus-galli. The assay can be described thus: Pre-emergence herbicidal activity against Echinochloa crus-galli (barnyard grass) assessed as growth inhibition at 1500 ai g/ha after 20 days by green house test.

Consider `COP(=O)(OC)C(C)OC(=O)COc1cc(C)ccc1Cl` (stereo not given), for which the “growth inhibition (GI)” value was “<=50%” in [1]; “<=50%” in assay [2]; “<=50%” in assay [3]; 50% in assay [4]; “<=50%” in assay [5]; “<=50%” in assay [6]. The “growth inhibition (GI)” value in [7], in [8], in assay [9] and in assay [10] was “<=50%” each time.

On to `COP(=O)(OC)C(OC(=O)COc1ccccc1[N+](=O)[O-])c1ccccc1` (stereo not given), for which the “growth inhibition (GI)” value in assay [1], in assay [2], in assay [3], in [4], in [5] and in assay [6] was “<=50%” each time. Also, the “growth inhibition (GI)” value in [7], in [8], in assay [9] and in assay [10] was “<=50%” in each case.

Regarding `COP(=O)(OC)C(OC(=O)COc1ccc(Cl)c(C)c1)c1cccc([N+](=O)[O-])c1` (stereo not given), the “growth inhibition (GI)” value in assay [1] is reported as 75%; in [2], 75%; in assay [3], “<=50%”; in assay [4], “<=50%”; in assay [5], “<=50%”; in assay [6] it was 75%. Moreover, the “growth inhibition (GI)” value in assay [7] is 75%; in assay [8], 50%; in assay [9], 50%; in assay [10] it was “<=50%”.

Consider `COP(=O)(OC)C(OC(=O)COc1ccccc1)c1ccccc1` (stereo not given), for which the “growth inhibition (GI)” value in assay [1], in [2], in assay [3], in assay [4], in [5] and in assay [6] was “<=50%” each time. The “growth inhibition (GI)” value in [7], in assay [8], in assay [9] and in assay [10] was “<=50%” throughout.

As to `COP(=O)(OC)C(OC(=O)COc1ccc(F)cc1Cl)c1ccccc1` (stereo not given), the “growth inhibition (GI)” value in [1] is recorded as 75%; in assay [2] it was 90%; in [3], 75%; in assay [4], 50%; in [5], 75%; in [6] it was 90%. In addition, the “growth inhibition (GI)” value in assay [7], in [8], in assay [9] and in [10] was 90% in each case.

As for `COP(=O)(OC)C(C)OC(=O)COc1ccc(Br)cc1Br` (stereo not given), the “growth inhibition (GI)” value in assay [1] was 90%; in [2], 90%; in [3] it was 90%; in [4], “<=50%”; in assay [5], “<=50%”; in assay [6], 75%. Besides, the “growth inhibition (GI)” value in assay [7], in [8], in assay [9] and in assay [10] was “<=50%” in each case.

As to `COP(=O)(OC)C(OC(=O)COc1ccc(F)c(Cl)c1)C(Cl)(Cl)Cl` (stereo not given), the “growth inhibition (GI)” value in assay [1] is on record as 50%; in assay [2] it was 90%; in assay [3] it was 75%; in [4] it was “<=50%”; in [5], 50%; in assay [6], 50%. Also, the “growth inhibition (GI)” value was 50% in assay [7], “<=50%” in assay [8], 75% in assay [9] and 50% in assay [10].

Turning to `COP(=O)(OC)C(OC(=O)COc1c(Cl)cccc1Cl)c1cccc([N+](=O)[O-])c1` (stereo not given), the “growth inhibition (GI)” value in assay [1], in assay [2], in assay [3], in [4], in assay [5] and in assay [6] was “<=50%” throughout. The “growth inhibition (GI)” value in [7], in assay [8], in assay [9] and in assay [10] was “<=50%” in each case.

`COP(=O)(OC)C(C)OC(=O)COc1cccc(Cl)c1Cl` (stereo not given): the “growth inhibition (GI)” value is reported as “<=50%” in assay [1]; 50% in assay [2]; “<=50%” in [3]; “<=50%” in [4]; “<=50%” in assay [5]; “<=50%” in [6]. Also, the “growth inhibition (GI)” value in [7], in assay [8], in assay [9] and in assay [10] was “<=50%” each time.

As for `COP(=O)(OC)C(OC(=O)COc1ccc(Cl)cc1Cl)C(Cl)(Cl)Cl` (stereo not given), the “growth inhibition (GI)” value in assay [1] was 50%; in assay [2], 90%; in assay [3], 90%; in assay [4] it was 50%; in [5] it was 50%; in [6], 90%. The “growth inhibition (GI)” value in assay [7], in assay [8], in assay [9] and in [10] was 90% in each case.

With `COP(=O)(OC)C(OC(=O)COc1ccc(C(F)(F)F)cc1[N+](=O)[O-])c1ccccc1` (stereo not given), the “growth inhibition (GI)” value in assay [1], in [2], in [3], in assay [4], in assay [5] and in assay [6] was “<=50%” throughout. Also, the “growth inhibition (GI)” value in [7], in assay [8], in assay [9] and in assay [10] was “<=50%” each time.

As to `COP(=O)(OC)C(OC(=O)COc1ccc(Cl)cc1Cl)c1cccc(Br)c1` (stereo not given), the “growth inhibition (GI)” value in assay [1] is 90%; in assay [2], 90%; in assay [3], 90%; in [4], “<=50%”; in [5], 50%; in [6], 90%. The “growth inhibition (GI)” value was 90% in [7], 90% in assay [8], 90% in [9] and 50% in assay [10].

Regarding `COP(=O)(OC)C(OC(=O)COc1ccc(F)c(Cl)c1)c1ccccc1` (stereo not given), the “growth inhibition (GI)” value in assay [1] is recorded as 50%; in [2], 75%; in assay [3] it was 75%; in assay [4], “<=50%”; in [5] it was 50%; in assay [6], 75%. In addition, the “growth inhibition (GI)” value is 90% in assay [7], 90% in [8], 90% in assay [9] and 75% in assay [10].

For `COP(=O)(OC)C(OC(=O)COc1cccc(C)c1)c1ccccc1` (stereo not given), the “growth inhibition (GI)” value is given as 50% in assay [1]; 50% in assay [2]; 50% in assay [3]; “<=50%” in assay [4]; “<=50%” in assay [5]; 75% in assay [6]. The “growth inhibition (GI)” value in [7] is 75%; in assay [8] it was 75%; in assay [9], “<=50%”; in [10], “<=50%”.

On to `COP(=O)(OC)C(OC(=O)COc1ccc(C(F)(F)F)cc1)c1ccccc1` (stereo not given), for which the “growth inhibition (GI)” value in assay [1], in [2], in assay [3], in assay [4], in assay [5] and in assay [6] was “<=50%” in each case. The “growth inhibition (GI)” value in assay [7], in assay [8], in [9] and in assay [10] was “<=50%” each time.

As for `COP(=O)(OC)C(C)OC(=O)COc1ccc(Cl)cc1` (stereo not given), the “growth inhibition (GI)” value in [1] is recorded as 50%; in [2] it was 90%; in assay [3], 75%; in assay [4] it was “<=50%”; in [5], “<=50%”; in assay [6], 90%. The “growth inhibition (GI)” value in assay [7], in [8], in assay [9] and in assay [10] was 90% each time.
